38 compounds from patent publication US10913753B2, “Thienopyridine carboxamides as ubiquitin-specific protease inhibitors” (FORMA Therapeutics, Inc., priority 2016, dated 2021) can be followed below.

One assay concerns the target USP28 (Homo sapiens (Human), UniProt Q96RU2). Kind of assay: Ubiquitin-Rhodamine 110 Assay for USP28 Activity. It counts as biochemical. The method, then: The assay was performed in a final volume of 20 μL in assay buffer containing 20 mM Tris-HCl (pH 8.0, (1M Tris-HCl, pH 8.0 solution; Corning 46-031-CM)), 2 mM CaCl2 (1M Calcium Chloride solution; Sigma #21114) 2 mM BME (2-Mercaptoethanol; Sigma 63689-25ML -F), 0.01% Prionex (0.22 μM filtered, Sigma #G-0411), and 0.01% Triton X-100. Stock compound solutions were stored at −20° C. as 10 mM in DMSO. Up to 1 month prior to the assay, 2 mM test compounds were pre-dispensed into assay plates (Black, low volume; Corning #3820) and frozen at −20° C. Prestamped assay plates were allowed to come to room temperature on the day of the assay. For the screen, 100 nL of 2 mM was pre-dispensed for a final screening concentration of 10 μM (DMSO(fc)=0.5%). […] Plates were incubated stacked for 90 minutes at room temperature before fluorescence was read on the Envision (Excitation at 485 nm and Emission at 535 nm; Perkin Elmer) or on the PheraSTAR (Excitation at 485 nm and Emission at 535 nm; BMG Labtech).
For follow-up studies, the assay was performed in a final volume of 15 μL in assay buffer containing 20 mM Tris-HCl (pH 8.0, (1M Tris-HCl, pH 8.0 solution; Corning 46-031-CM)), 3 mM BME (2-Mercaptoethanol; Sigma 63689-25ML-F), 0.03% BGG (0.22 μM filtered, Sigma, G7516-25G), and 0.01% Triton X-100 (Sigma, T9284-10L). Nanoliter quantities of either an 8-point or 10-point, 3-fold serial dilution in DMSO was pre-dispensed into assay plates (Perkin Elmer, ProxiPlate-384 F Plus) for a final test concentration of either 25 μM to 11 nM or 25 μM to 1.3 nM, respectively. Enzyme USP28, construct USP28 (USP28-5(1-1077)-TEV-6*His; LifeSensors) concentration and incubation times were optimized for the maximal signal-to -background while maintaining initial velocity conditions at a fixed substrate concentration. The final concentration of the enzyme in the assay was 75 pM. […] 5 μL of 2× enzyme was added to assay plates (pre-stamped with compound) preincubated with USP28 for 30 minutes and then 5 μL of 2× Ub-Rh110 was added to assay plates. Plates were incubated stacked for 20 min at room temperature before 5 μL of stop solution was added (final concentration of 10 mM citric acid (Sigma, 251275-500G)). Fluorescence was read on the Envision (Excitation at 485 nm and Emission at 535 nm; Perkin Elmer) or on the PheraSTAR (Excitation at 485 nm and Emission at 535 nm; BMG Labtech).
(§1) For both the USP28 and USP25 assay formats, data were reported as percent inhibition compared with control wells based on the following equation: % inh=1-((FLU-AveLow)/(AveHigh−AveLow)) where FLU=measured Fluorescence, AveLow=average Fluorescence of no enzyme control (n=16), and AveHigh=average Fluorescence of DMSO control (n=16). IC50 values were determined by curve fitting of the standard 4 parameter logistic fitting algorithm included in the Activity Base software package: IDBS XE Designer Model205. Data is fitted using the Levenburg Marquardt algorithm.

The target in another assay is USP25 (Homo sapiens (Human), UniProt Q9UHP3). Nature of the assay: Ubiquitin-Rhodamine 110 Assay for USP25 Activity. It counts as biochemical. The method, then: The assay was performed in a final volume of 9 μL in assay buffer containing 20 mM Tris-HCl (pH 8.0, (1M Tris-HC1, pH 8.0 solution; Corning 46-031-CM)), 3 mM BME (2-Mercaptoethanol; Sigma 63689-25ML-F), 0.03% BGG (0.22 μM filtered, Sigma, G7516-25G), and 0.01% Triton X-100 (Sigma, T9284-10L). Nanoliter quantities of 10-point, 3-fold serial dilution in DMSO was pre-dispensed into 1536 assay plates (Corning, #3724BC) for a final test concentration of 25 μM to 1.3 nM, top to lowest dose, respectively. Enzyme USP25, construct USP25-His6, (Boston Biochem E-546). Concentration and incubation times were optimized for the maximal signal-to-background while maintaining initial velocity conditions at a fixed substrate concentration. The final concentration of the enzyme in the assay was 75 pM. […] 3 μL of 2× enzyme was added to assay plates (pre-stamped with compound) preincubated with […] for 30 minutes and then 3 μL of 2× Ub-Rh110 was added to assay plates. Plates were incubated for 45 minutes at room temperature before addition of 3 μL of stop solution (final concentration of 10 mM citric acid (Sigma, 251275-500G)). Fluorescence was read on the Envision (Excitation at 485 nm and Emission at 535 nm; Perkin Elmer) or on the PheraSTAR (Excitation at 485 nm and Emission at 535 nm; BMG Labtech).
Sequence of USP25 (Q9UHP3 whole entry): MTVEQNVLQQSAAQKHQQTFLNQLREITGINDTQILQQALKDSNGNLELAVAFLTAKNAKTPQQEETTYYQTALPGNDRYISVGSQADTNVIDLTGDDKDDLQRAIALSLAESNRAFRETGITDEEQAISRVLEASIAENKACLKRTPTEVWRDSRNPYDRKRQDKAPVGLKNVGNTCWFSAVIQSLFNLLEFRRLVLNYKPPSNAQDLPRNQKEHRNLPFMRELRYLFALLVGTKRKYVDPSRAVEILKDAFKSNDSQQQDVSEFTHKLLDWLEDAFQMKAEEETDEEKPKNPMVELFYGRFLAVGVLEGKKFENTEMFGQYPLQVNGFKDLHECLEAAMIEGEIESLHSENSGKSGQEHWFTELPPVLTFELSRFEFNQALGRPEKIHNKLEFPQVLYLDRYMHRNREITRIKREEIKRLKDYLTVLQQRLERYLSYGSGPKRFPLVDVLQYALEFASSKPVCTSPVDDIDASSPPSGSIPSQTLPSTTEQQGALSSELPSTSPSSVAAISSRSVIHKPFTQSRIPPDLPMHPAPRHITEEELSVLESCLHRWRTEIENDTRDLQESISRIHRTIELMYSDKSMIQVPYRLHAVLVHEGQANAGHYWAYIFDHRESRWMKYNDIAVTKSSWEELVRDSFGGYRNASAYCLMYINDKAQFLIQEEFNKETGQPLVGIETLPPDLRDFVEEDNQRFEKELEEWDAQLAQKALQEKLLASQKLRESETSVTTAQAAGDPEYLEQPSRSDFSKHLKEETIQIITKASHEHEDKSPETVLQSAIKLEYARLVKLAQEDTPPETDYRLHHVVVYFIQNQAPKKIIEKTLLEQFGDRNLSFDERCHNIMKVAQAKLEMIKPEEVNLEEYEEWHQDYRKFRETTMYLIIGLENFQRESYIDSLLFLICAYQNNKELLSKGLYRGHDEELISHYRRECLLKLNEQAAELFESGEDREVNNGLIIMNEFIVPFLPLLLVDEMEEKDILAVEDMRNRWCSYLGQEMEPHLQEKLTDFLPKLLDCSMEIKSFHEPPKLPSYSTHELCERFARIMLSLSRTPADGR
as §1

Sequence of USP28 (Q96RU2 whole entry): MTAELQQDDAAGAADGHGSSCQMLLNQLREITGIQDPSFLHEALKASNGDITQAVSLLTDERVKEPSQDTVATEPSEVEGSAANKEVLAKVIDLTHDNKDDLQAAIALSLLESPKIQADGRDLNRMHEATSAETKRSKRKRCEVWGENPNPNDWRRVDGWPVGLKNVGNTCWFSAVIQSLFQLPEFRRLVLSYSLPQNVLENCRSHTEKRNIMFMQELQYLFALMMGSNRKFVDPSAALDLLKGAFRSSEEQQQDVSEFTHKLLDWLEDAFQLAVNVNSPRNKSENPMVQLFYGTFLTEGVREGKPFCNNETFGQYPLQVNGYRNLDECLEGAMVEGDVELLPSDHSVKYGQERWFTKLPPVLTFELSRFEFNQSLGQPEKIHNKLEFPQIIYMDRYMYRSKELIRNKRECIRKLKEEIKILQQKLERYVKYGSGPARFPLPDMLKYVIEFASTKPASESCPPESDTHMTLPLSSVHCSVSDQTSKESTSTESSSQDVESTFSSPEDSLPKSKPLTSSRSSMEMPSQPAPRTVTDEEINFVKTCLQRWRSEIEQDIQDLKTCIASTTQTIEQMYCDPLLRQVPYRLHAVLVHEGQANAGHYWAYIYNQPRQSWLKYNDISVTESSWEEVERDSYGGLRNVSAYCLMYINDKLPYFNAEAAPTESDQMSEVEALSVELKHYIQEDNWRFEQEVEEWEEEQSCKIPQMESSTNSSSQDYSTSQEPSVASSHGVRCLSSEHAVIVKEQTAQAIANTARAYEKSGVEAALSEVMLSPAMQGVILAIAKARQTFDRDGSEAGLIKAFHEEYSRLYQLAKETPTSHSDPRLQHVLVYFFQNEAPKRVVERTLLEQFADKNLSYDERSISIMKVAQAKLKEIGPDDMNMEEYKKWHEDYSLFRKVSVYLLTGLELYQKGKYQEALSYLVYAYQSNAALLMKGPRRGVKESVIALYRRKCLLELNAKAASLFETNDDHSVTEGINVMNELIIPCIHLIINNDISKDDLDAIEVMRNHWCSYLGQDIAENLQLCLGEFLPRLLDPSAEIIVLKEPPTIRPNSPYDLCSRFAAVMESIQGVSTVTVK

The term IC50 denotes the midpoint of a concentration-inhibition curve. Read a high IC50 as lower potency. Regarding `Cc1ccc2c(N)c(C(=O)NCCc3ccc(O[C@H]4COC5(CNC5)C4)cc3)sc2n1` (single isomer, unassigned) [Example I-219], the half-maximal inhibitory concentration (IC50) at USP28 and against USP25 was 200 to 2000 nM throughout.

Regarding `C[C@H](O)c1ccc2c(N)c(C(=O)NCCc3ccc(N4CCNCC4)cc3)sc2n1` (single isomer, unassigned) [Example I-221], the half-inhibitory concentration (IC50) at USP28 and at USP25 was 10000 to 25000 nM throughout.

Take `C[C@@H](O)c1ccc2c(N)c(C(=O)NCCc3ccc(N4CCNCC4)cc3)sc2n1` (single isomer, unassigned) [Example I-222]: the IC50 against USP28 and against USP25 was 200 to 2000 nM throughout.

With `COc1cc(N2CCNCC2)ccc1CCNC(=O)c1sc2nc(C)ccc2c1N` [Compound I-2], the 50% inhibitory concentration (IC50) on USP28 and at USP25 was < 200 nM throughout.

For the compound `Cc1ccc2c(N)c(C(=O)NCCc3ccc(N4CCNCC4)cc3F)sc2n1` [Compound I-5], the IC50 on USP28 and at USP25 was 200 to 2000 nM in each case.

Take `Cc1ccc2c(N)c(C(=O)NCCc3ccc(N4CCNCC4)c(C4CC4)c3)sc2n1` [Compound I-6]: the IC50 is < 200 nM against USP28 and 200 to 2000 nM against USP25.

As for `Cc1cc(C(F)(F)F)c2c(N)c(C(=O)NCCc3ccc(N4CCNCC4)c(F)c3)sc2n1` [Compound I-7], the IC50 is 200 to 2000 nM against USP28 and < 200 nM against USP25.

Take `Cc1ccc2c(N)c(C(=O)NCCc3ccc(-c4cnn5c4CNCC5)cc3)sc2n1` [Compound I-12]: the figures for the half-maximal inhibitory concentration (IC50) against USP28 and against USP25 were < 200 nM and 200 to 2000 nM, respectively.

In the case of `Cc1ccc2c(N)c(C(=O)NCCc3ccc(C4CCNCC4)cc3)sc2n1` [Compound I-13], the IC50 against USP28 is < 200 nM; at USP25, 200 to 2000 nM.

Take `Cc1cc(C(F)F)c2c(N)c(C(=O)NCCc3ccc(N4CCNCC4)cc3)sc2n1` [Compound I-14]: the 50% inhibitory concentration (IC50) at USP28 and against USP25 was < 200 nM in each case.

Regarding `Cc1ccc2c(N)c(C(=O)NCCc3ccc(N4CC5CCC(C4)N5)cc3)sc2n1` [Compound I-15], the 50% inhibitory concentration (IC50) was < 200 nM against USP28 and 200 to 2000 nM at USP25.

`Nc1cc(C(F)F)c2c(N)c(C(=O)NCCc3ccc(N4CCNCC4)cc3)sc2n1` [Compound I-16]: the half-maximal inhibitory concentration (IC50) was < 200 nM against USP28 and 200 to 2000 nM against USP25.

As for `Cc1cc(N)nc2sc(C(=O)NCCc3ccc(N4CCNCC4)c(Cl)c3)c(N)c12` [Compound I-17], the IC50 against USP28 was in the range of 200 to 2000 nM; at USP25, 2000 to 10000 nM.

On to `Cc1ccc2c(N)c(C(=O)NCCc3ccc(N4CCNCC4)c4c3CCC4)sc2n1` [Compound I-18], for which the IC50 against USP28 and at USP25 was < 200 nM throughout.

As for `Cc1ccc2c(N)c(C(=O)NCCc3ccc(N4CC5CCC(C4)N5)c(Cl)c3)sc2n1` [Compound I-20], the 50% inhibitory concentration (IC50) against USP28 and against USP25 was 200 to 2000 nM throughout.

Consider `Cc1ccc2c(N)c(C(=O)NCCc3ccc(N4CC5CCC(C4)N5)cc3Cl)sc2n1` [Compound I-21], for which the 50% inhibitory concentration (IC50) at USP28 and at USP25 was < 200 nM in each case.

Turning to `Cc1ccc2c(N)c(C(=O)NCCc3ccc(N4CC5CCC(C4)N5)cc3F)sc2n1` [Compound I-22], the IC50 is < 200 nM against USP28 and 200 to 2000 nM against USP25.

Regarding `Cc1ccc2c(N)c(C(=O)NCCc3ccc(N4CCNCC4)c(-c4ccccc4)c3)sc2n1` [Compound I-23], the 50% inhibitory concentration (IC50) was in the range of 200 to 2000 nM against USP28 and 2000 to 10000 nM against USP25.

Turning to `COc1cc(C)nc2sc(C(=O)NCCc3ccc(N4CCNCC4)cc3)c(N)c12` [Compound I-24], the concentration for half-maximal inhibition (IC50) fell in the range of 2000 to 10000 nM against USP28 and 10000 to 25000 nM on USP25.

With `Cc1ccc2c(N)c(C(=O)NCCc3ccc(N4CCN(CC5CCO5)CC4)cc3)sc2n1` (stereo not shown) [Compound I-25], the IC50 against USP28 was in the range of 200 to 2000 nM; against USP25, 2000 to 10000 nM.

Regarding `COCCN1CCN(c2ccc(CCNC(=O)c3sc4nc(C)ccc4c3N)cc2)CC1` [Compound I-26], the IC50 against USP28 lay within 200 to 2000 nM; on USP25, 2000 to 10000 nM.

Turning to `Nc1c(C(=O)NCCc2ccc(N3CCNCC3)cc2)sc2ncc(C(F)F)cc12` [Compound I-27], the IC50 on USP28 was 2000 to 10000 nM; on USP25, 10000 to 25000 nM.

Regarding `Nc1c(C(=O)NCCc2ccc(N3CCNCC3)cc2)sc2ncc3c(c12)CCC3` [Compound I-28], the IC50 against USP28 and against USP25 was 2000 to 10000 nM in each case.

In the case of `Nc1c(C(=O)NCCc2ccc(N3CCNCC3)cc2)sc2nc3c(cc12)CCC3` [Compound I-29], the IC50 on USP28 and against USP25 was 2000 to 10000 nM in each case.

`Nc1c(C(=O)NCCc2ccc(N3CCNCC3)cc2)sc2nc3c(cc12)CCCC3` [Compound I-30]: the figures for the IC50 against USP28 and at USP25 were 2000 to 10000 nM and 10000 to 25000 nM, respectively.

For `Cc1cc2c(N)c(C(=O)NCCc3ccc(N4CCNCC4)c(Cl)c3)sc2nc1C` [Compound I-31], the IC50 at USP28 and on USP25 was 2000 to 10000 nM each time.

In the case of `Nc1c(C(=O)NCCc2ccc(N3CCNCC3)cc2)sc2nc(C(F)(F)F)ccc12` [Compound I-33], the IC50 at USP28 and on USP25 was 2000 to 10000 nM throughout.

In the case of `Cc1ccc2c(N)c(C(=O)NCCc3cc(F)c(N4CC5CCC(C4)N5)cc3F)sc2n1` [Compound I-34], the half-maximal inhibitory concentration (IC50) on USP28 was < 200 nM; against USP25 it was 200 to 2000 nM.

In the case of `Cc1ccc2c(N)c(C(=O)NCCc3ccc(N4CC5CCC(C4)N5)cc3C#N)sc2n1` [Compound I-36], the figures for the IC50 on USP28 and against USP25 were < 200 nM and 200 to 2000 nM, respectively.

Take `COCc1cc(N2CCNCC2)ccc1CCNC(=O)c1sc2nc(C)ccc2c1N` [Compound I-37]: the half-maximal inhibitory concentration (IC50) at USP28 is < 200 nM; at USP25, 200 to 2000 nM.

On to `Cc1ccc2c(N)c(C(=O)NCCc3ccc(-n4ncc5c4CNC5)cc3)sc2n1` [Compound I-38], for which the 50% inhibitory concentration (IC50) fell in the range of 200 to 2000 nM on USP28 and 2000 to 10000 nM at USP25.

`Nc1c(C(=O)NCCc2ccc(N3CCNCC3)c(Cl)c2)sc2ncc(Cl)cc12` [Compound I-40]: the figures for the IC50 against USP28 and on USP25 were 200 to 2000 nM and 2000 to 10000 nM, respectively.

Consider `Cc1ccc2c(N)c(C(=O)NCCc3ccc(-n4ncc5c4CNC5)cc3F)sc2n1` [Compound I-41], for which the IC50 at USP28 is < 200 nM; against USP25 it was 200 to 2000 nM.

In the case of `Nc1c(C(=O)NCCc2ccc(N3CCNCC3)cc2)sc2nc(CO)ccc12` [Compound I-43], the half-maximal inhibitory concentration (IC50) against USP28 is 200 to 2000 nM; against USP25, 2000 to 10000 nM.

Take `CCc1cc(CCNC(=O)c2sc3nc(C)ccc3c2N)ccc1N1CC2CCC(C1)N2` [Compound I-44]: the concentration for half-maximal inhibition (IC50) at USP28 and on USP25 was < 200 nM in each case.

`CCc1ccc2c(N)c(C(=O)NCCc3ccc(N4CCNCC4)cc3)sc2n1` [Compound I-47]: the IC50 against USP28 and on USP25 was < 200 nM throughout.

Regarding `CCc1ccc2c(N)c(C(=O)NCCc3cc(F)c(N4CCNCC4)cc3F)sc2n1` [Compound I-48], the IC50 on USP28 and against USP25 was < 200 nM in each case.

Take `Cc1ccc2c(N)c(C(=O)NCCc3cc(F)c(N4C[C@@H]5C[C@H]4CN5)cc3F)sc2n1` [Compound I-52]: the half-inhibitory concentration (IC50) on USP28 was < 200 nM; on USP25, 200 to 2000 nM.
